Measurements taken from PubChem BioAssay AID200 (DTP/NCI, 2004).
Several values for one entry are separate records, joined by “and”; a condition that tells them apart may be missing. Equal entries are not always repeated. Inconclusive results and toxic doses are left out. Where a SMILES comes first, the peptide text is derived from it.

Test system: B6C3F1 mice, B16 melanoma ip, median survival T/C
Test: NCI In Vivo Anticancer Drug Screen. Data for tumor model B16 Melanoma (intraperitoneal) in B6C3F1 mice
Settings: endpoint: median survival time, higher = longer survival
Procedure, shortened: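 Mice bearing transplanted tumor were dosed with compound or vehicle, and survival was recorded. Activity is expressed as the treated-group measurement (T) divided by the vehicle control measurement (C).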

[1] = dose: 12.5 mg/kg/injection, schedule: Q01DX009 (ip), vehicle: saline with Tween-80
[2] = dose: 25.0 mg/kg/injection, schedule: Q01DX009 (ip), vehicle: Klucel (hydroxypropylcellulose) (HPC)
[3] = dose: 25.0 mg/kg/injection, schedule: Q01DX009 (ip), vehicle: saline with Tween-80
[4] = dose: 50.0 mg/kg/injection, schedule: Q01DX009 (ip), vehicle: Klucel (hydroxypropylcellulose) (HPC)
[5] = dose: 50.0 mg/kg/injection, schedule: Q01DX009 (ip), vehicle: saline with Tween-80
[6] = dose: 100.0 mg/kg/injection, schedule: Q01DX009 (ip), vehicle: Klucel (hydroxypropylcellulose) (HPC)
[7] = dose: 100.0 mg/kg/injection, schedule: Q01DX009 (ip), vehicle: saline with Tween-80
[8] = dose: 200.0 mg/kg/injection, schedule: Q01DX009 (ip), vehicle: Klucel (hydroxypropylcellulose) (HPC)
[9] = dose: 200.0 mg/kg/injection, schedule: Q01DX009 (ip), vehicle: saline with Tween-80
[10] = dose: 400.0 mg/kg/injection, schedule: Q01DX009 (ip), vehicle: saline with Tween-80
[11] = dose: 0.5 mg/kg/injection, schedule: Q01DX009 (ip), vehicle: distilled water + Tween-80
[12] = dose: 1.0 mg/kg/injection, schedule: Q01DX009 (ip), vehicle: distilled water + Tween-80
[13] = dose: 2.0 mg/kg/injection, schedule: Q01DX009 (ip), vehicle: distilled water + Tween-80
[14] = dose: 4.0 mg/kg/injection, schedule: Q01DX009 (ip), vehicle: distilled water + Tween-80
[15] = dose: 8.0 mg/kg/injection, schedule: Q01DX009 (ip), vehicle: distilled water + Tween-80
[16] = dose: 25.0 mg/kg/injection, schedule: Q01DX009 (ip), vehicle: saline
[17] = dose: 50.0 mg/kg/injection, schedule: Q01DX009 (ip), vehicle: saline
[18] = dose: 100.0 mg/kg/injection, schedule: Q01DX009 (ip), vehicle: saline
[19] = dose: 200.0 mg/kg/injection, schedule: Q01DX009 (ip), vehicle: saline
[20] = dose: 400.0 mg/kg/injection, schedule: Q01DX009 (ip), vehicle: saline

## O=c1oc2c(O)c(O)cc3c(=O)oc4c(O)c(O)cc1c4c23
dose: 6.25 mg/kg/injection, schedule: Q01DX009 (ip), vehicle: Klucel (hydroxypropylcellulose) (HPC)
  T/C: 116 % of control
dose: 12.5 mg/kg/injection, schedule: Q01DX009 (ip), vehicle: Klucel (hydroxypropylcellulose) (HPC)
  T/C: 117 % of control
[1]
  T/C: 123 % of control
[2]
  T/C: 114 % of control and 120 % of control
[3]
  T/C: 113 % of control
[4]
  T/C: 114 % of control and 87 % of control
[5]
  T/C: 114 % of control
[6]
  T/C: 108 % of control and 88 % of control
[7]
  T/C: 105 % of control
[8]
  T/C: 116 % of control
[9]
  T/C: 115 % of control
[10]
  T/C: 119 % of control

## CC(=O)OCC12C3CC(=O)OC1C(OC(=O)C=C(C)C)C1C(C)=CC(=O)C(OC(C)=O)C1(C)C2C(=O)C(OC(C)=O)C3C (centres undefined)
[11]
  T/C: 93 % of control
[12]
  T/C: 101 % of control
[13]
  T/C: 118 % of control
[14]
  T/C: 93 % of control
[15]
  T/C: 98 % of control

## CN1CCN(Cc2nc3cccc4c3c([n+]2[O-])-c2ccccc2-4)CC1
[1]
  T/C: 98 % of control
[3]
  T/C: 99 % of control
[5]
  T/C: 110 % of control
[7]
  T/C: 106 % of control
[9]
  T/C: 120 % of control

## Cc1cc2c(c3oc(C4(C)OC4C4OC4C)cc(=O)c13)C(=O)c1c(O)c(C3CC(C)(N(C)C)C(O)C(C)O3)cc(C3CC(N(C)C)C(O)C(C)O3)c1C2=O (centres undefined)
dose: 2.0 micrograms/kg/injection, schedule: Q01DX009 (ip), vehicle: Klucel (hydroxypropylcellulose) (HPC)
  T/C: 123 % of control
dose: 4.0 micrograms/kg/injection, schedule: Q01DX009 (ip), vehicle: Klucel (hydroxypropylcellulose) (HPC)
  T/C: 118 % of control

## COc1cc2c[n+](C)c3c(c2cc1OC)Cc1cc2c(cc1-3)OCO2
[1]
  T/C: 120 % of control
dose: 12.5 mg/kg/injection, schedule: Q01DX009 (ip), vehicle: suspension in saline
  T/C: 111 % of control
dose: 25.0 mg/kg/injection, schedule: Q01DX009 (ip), vehicle: suspension in saline
  T/C: 111 % of control
dose: 50.0 mg/kg/injection, schedule: Q01DX009 (ip), vehicle: suspension in saline
  T/C: 110 % of control

## CC1CCOS(=O)O1 (centres undefined)
dose: 10.0 mg/kg/injection, schedule: Q01DX009 (ip), vehicle: saline
  T/C: 104 % of control
dose: 20.0 mg/kg/injection, schedule: Q01DX009 (ip), vehicle: saline
  T/C: 123 % of control
dose: 40.0 mg/kg/injection, schedule: Q01DX009 (ip), vehicle: saline
  T/C: 110 % of control

## Nc1nc(=S)c2ncn(C3CC(O)C(CO)O3)c2[nH]1 (centres undefined)
dose: 12.5 mg/kg/injection, schedule: Q01DX009 (ip), vehicle: saline
  T/C: 101 % of control
[16]
  T/C: 96 % of control
[17]
  T/C: 104 % of control
[18]
  T/C: 104 % of control
[19]
  T/C: 103 % of control
[20]
  T/C: 103 % of control

## CC(O)CNCCNc1ccc(NCCNCC(C)O)c2c1C(=O)c1c(O)ccc(O)c1C2=O (centres undefined)
[12]
  T/C: 169 % of control
[13]
  T/C: 194 % of control
[14]
  T/C: 221 % of control
[15]
  T/C: 180 % of control

## Cc1c(CNc2ccc(C(=O)NC(CC(=O)O)C(=O)O)cc2)ccc2nc(N)nc(N)c12 (centres undefined)
dose: 0.18 mg/kg/injection, schedule: Q01DX009 (ip), vehicle: saline with Tween-80
  T/C: 90 % of control

## C[Si](C)(CCl)N[Si](C)(C)CCl
[1]
  T/C: 100 % of control
[3]
  T/C: 104 % of control
[5]
  T/C: 99 % of control
[7]
  T/C: 96 % of control

## COc1cccc2c1C(=O)c1c(O)c3c(c(O)c1C2=O)C[C@@](O)(C(C)=O)C[C@@H]3OC1CC(N(CCO)Cc2ccccc2)C(O)C(C)O1 (some centres undefined)
dose: 12.5 mg/kg/injection, schedule: Q01DX001 (ip), vehicle: water
  T/C: 120 % of control
dose: 25.0 mg/kg/injection, schedule: Q01DX001 (ip), vehicle: water
  T/C: 116 % of control

## CCCCCC[C@@H](O)C/C=C\CCCCCCCC(=O)OCCO
[16]
  T/C: 101 % of control
[17]
  T/C: 110 % of control
dose: 75.0 mg/kg/injection, schedule: Q01DX009 (ip), vehicle: saline
  T/C: 102 % of control
[18]
  T/C: 122 % of control
dose: 150.0 mg/kg/injection, schedule: Q01DX009 (ip), vehicle: saline
  T/C: 97 % of control
[19]
  T/C: 101 % of control
dose: 300.0 mg/kg/injection, schedule: Q01DX009 (ip), vehicle: saline
  T/C: 100 % of control
[20]
  T/C: 103 % of control
dose: 600.0 mg/kg/injection, schedule: Q01DX009 (ip), vehicle: saline
  T/C: 95 % of control
dose: 800.0 mg/kg/injection, schedule: Q01DX009 (ip), vehicle: saline
  T/C: 96 % of control
dose: 1200.0 mg/kg/injection, schedule: Q01DX009 (ip), vehicle: saline
  T/C: 96 % of control

## Nc1nc(Cl)c2ncn(C3OC(CO)C(O)C3O)c2n1 (centres undefined)
[7]
  T/C: 98 % of control
[9]
  T/C: 100 % of control
[10]
  T/C: 101 % of control

## NCC(=O)N1CCCC1C(=O)NCC(=O)NCC(=O)O (centres undefined) (HELM PEPTIDE1{G.[O=C(C1CCCN1[*:1])[*:2]].G.G}$$$$V2.0)
[17]
  T/C: 92 % of control
[18]
  T/C: 100 % of control
[19]
  T/C: 95 % of control

## CC(C)NCC(O)COc1ccc(O)c(O)c1 (centres undefined)
[16]
  T/C: 100 % of control and 103 % of control
[17]
  T/C: 113 % of control and 106 % of control
[18]
  T/C: 109 % of control and 116 % of control

## CC1C(c2ccccc2)OC(N2CCOCC2)C(C)(C)CN1C (centres undefined)
[5]
  T/C: 103 % of control
[7]
  T/C: 99 % of control
[9]
  T/C: 96 % of control
[10]
  T/C: 100 % of control

## Cc1cnc(/C=N\NC(N)=S)c2cccc(N)c12
dose: 3.0 mg/kg/injection, schedule: Q01DX009 (ip), vehicle: saline with Tween-80
  T/C: 108 % of control
dose: 6.0 mg/kg/injection, schedule: Q01DX009 (ip), vehicle: saline with Tween-80
  T/C: 116 % of control

## COC1=Nc2ccccc2N2CCN=C12
dose: 6.25 mg/kg/injection, schedule: Q04DX003 (ip), vehicle: saline with Tween-80
  T/C: 103 % of control
dose: 12.5 mg/kg/injection, schedule: Q04DX003 (ip), vehicle: saline with Tween-80
  T/C: 106 % of control
dose: 25.0 mg/kg/injection, schedule: Q04DX003 (ip), vehicle: saline with Tween-80
  T/C: 96 % of control
dose: 50.0 mg/kg/injection, schedule: Q04DX003 (ip), vehicle: saline with Tween-80
  T/C: 96 % of control

## CC(C)=CC(=O)OC1C2C(C)=CC(=O)C(O)C2(C)C2C3(O)OCC24C(CC(=O)OC14)C(C)C3O (centres undefined)
dose: 0.25 mg/kg/injection, schedule: Q01DX009 (ip), vehicle: distilled water + Tween-80
  T/C: 163 % of control and 168 % of control
[11]
  T/C: 150 % of control and 160 % of control and 168 % of control

## O=C1CSC(c2cccs2)N1c1nncs1 (centres undefined)
[2]
  T/C: 102 % of control
[4]
  T/C: 92 % of control
[6]
  T/C: 92 % of control
[8]
  T/C: 97 % of control

## CCCCCCCC(=O)O[C@H]1[C@H]2[C@@H](CC1(C)C)C(=O)[C@]13O[C@H]1C(=O)[C@]1(CO1)[C@]23C
dose: 0.31 mg/kg/injection, schedule: Q01DX009 (ip), vehicle: saline with Tween-80
  T/C: 98 % of control
dose: 0.62 mg/kg/injection, schedule: Q01DX009 (ip), vehicle: saline with Tween-80
  T/C: 90 % of control
dose: 1.25 mg/kg/injection, schedule: Q01DX009 (ip), vehicle: saline with Tween-80
  T/C: 86 % of control and 98 % of control
dose: 2.5 mg/kg/injection, schedule: Q01DX009 (ip), vehicle: saline with Tween-80
  T/C: 88 % of control

## COC(C(=O)C(O)C(C)O)C1CC2C=C3C=C(OC4CC(OC5CC(O)C(OC)C(C)O5)C(OC(C)=O)C(C)O4)C(C)C(=O)C3=C(O)C2=C(O)C1OC1CC(OC2CC(OC3CC(C)(O)C(OC(=O)C(C)C)C(C)O3)C(O)C(C)O2)C(O)C(C)O1 (centres undefined)
dose: 62.5 micrograms/kg/injection, schedule: Q01DX009 (ip), vehicle: saline
  T/C: 155 % of control

## Nc1ccc(S(N)(=O)=O)cc1
[1]
  T/C: 94 % of control
[3]
  T/C: 86 % of control and 99 % of control
[5]
  T/C: 98 % of control and 100 % of control
[7]
  T/C: 105 % of control and 108 % of control
[9]
  T/C: 114 % of control and 101 % of control
[10]
  T/C: 90 % of control and 99 % of control

## COC(=O)C12OCC34C(CC5C(C)=CC(=O)C(O)C5(C)C3C(O)C1O)OC(=O)C(OC(=O)CC(C)C)C24 (centres undefined)
dose: 0.25 mg/kg/injection, schedule: Q01DX009 (ip), vehicle: saline + alcohol
  T/C: 164 % of control
dose: 0.5 mg/kg/injection, schedule: Q01DX009 (ip), vehicle: saline + alcohol
  T/C: 180 % of control
dose: 1.0 mg/kg/injection, schedule: Q01DX009 (ip), vehicle: saline + alcohol
  T/C: 164 % of control
dose: 2.0 mg/kg/injection, schedule: Q01DX009 (ip), vehicle: saline + alcohol
  T/C: 159 % of control
